Where two headings read alike, the source gives them in different places.

In assay [1] the target is T1, ScSLAC (small laccase, SLAC) (Streptomyces coelicolor, UniProt Q9XAL8).
T1 sequence (Q9XAL8 34-343): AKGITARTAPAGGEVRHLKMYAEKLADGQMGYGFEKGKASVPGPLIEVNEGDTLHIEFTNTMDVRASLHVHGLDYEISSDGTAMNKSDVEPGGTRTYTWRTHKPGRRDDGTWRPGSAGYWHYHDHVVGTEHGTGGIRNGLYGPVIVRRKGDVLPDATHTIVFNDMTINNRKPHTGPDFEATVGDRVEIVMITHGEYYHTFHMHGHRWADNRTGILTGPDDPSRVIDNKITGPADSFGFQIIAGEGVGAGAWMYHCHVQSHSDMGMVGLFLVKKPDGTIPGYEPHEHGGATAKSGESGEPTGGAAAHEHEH
The assay can be described thus: spectrophotometric oxidation, […] nm, Michaelis-Menten or substrate inhibition fit. Type of assay: biochemical. The note with it: read-out: DMP; pH 8.0, 42 °C; 0.25-15 mM substrate.

Assay [2] deals with T1, ScSLAC (small laccase, SLAC). The assay is described as above. The following applies: read-out: Pyrogallol; pH 8.5, 42 °C; 0.025-1 mM substrate.

`COc1cccc(OC)c1O` [DMP, 2,6-dimethoxyphenol]: the Km in assay [1] was 1100 ± 60 µM.

As for `Oc1cccc(O)c1O` [Pyrogallol], the Km in assay [2] was 200 ± 60 µM.

The values above are taken from article PMC8867573 (ACS Omega, 2022).
